1 molecule from US12378521B2, “Method for enhancing production of genetically engineered autologous T cells” (AMGEN INC., priority 2020, dated 2025) can be followed below.

The test system of assay [1] is T cells. Kind of assay: Leukocyte subsets in harvested T cells by immunophenotyping. The assay is classed as cell-based, human. The settings on record: at harvest, both conditions. The procedure: Analysis of human B cells (CD19), monocytes (CD14), NK cells (CD56/16), NKT cells (CD3+CD56+), and T cells (CD3+Cd56−) were performed by immunophenotyping.
Assay [2] concerns T2 cells. Briefly: IFN-γ expression after co-culture with T2 cells (AlphaLISA). The assay is classed as cell-based. The following applies: 24 hours co-culture, all peptide concentrations tested. On the procedure: (§1) T2 cells expressing Luciferase were pulsed with the peptide recognized by the engineered TCR or with DMSO for 4 hours and the cells were washed before setting up a co-culture assay with 20,000 total T cells at a 1:1 (E:T) ratio. (A) 48 hours later, the luciferase signal was measured using the Steady Glo® Luciferase Assay System (Promega). Specific cytotoxicity was measured relative to the no peptide T2 cells cultured with the TCR T cells. (B) IFN-γ expression was measured using the AlphaLISA® detection kit (Perkin Elmer Waltham, MA) after 24 hours of co-culture. […] In addition, 24 hour accumulated release of IFN-γ was higher for T cells in non-2-DG media cross all concentration of peptide tested. […] Culture media containing 2-DG was used throughout the entire process (10 days).
(Bead proximity is the source of the signal in Alpha formats.)

A further assay relates to glycolysis. Briefly: Glucose and lactate concentrations in culture (Cedex Bio Analyzer). Format: cell-based, human. On the procedure:
Glucose and lactate were measured using Cedex Bio Analyzer (Roche, Indianapolis, IN). […] In addition, the effect of 2-DG was reversible as restoration of glucose (A) and lactate (B) levels was found after removal of 2-DG from the media from Day 7 to 14.

For assay [3], the system named is T cells. Briefly: T cell differentiation phenotyping (Tscm, Tcm, Tem) with 2-DG. The assay is classed as cell-based, human. The procedure:
Tscm, Tcm, Tem, and Tte subsets were analyzed by immunophenotyping based on their expression of CD45RA, CD45RO, CD95, and CCR7.
2-DG was added to culture medium between Days 0 and 7 and the feed medi was replaced with non-2-DG media (Media 1) from Days 7-14. […] The T cells continued differentiation after 2-DG was perfused out from culture media and ended at a similar level of differentiation as T cells in non-2-DG media (Media 1).
as §1

The test system of another assay is apheresed donor cells. Briefly: Growth and viability of cells expanded in media supplemented with 2-DG. Format: cell-based, human. On the procedure: A portion of the washed apheresed donor cells comprising 1.2E9 nucleated cells were transferred into two transfer bags under the Dilute program using Sepax C-Pro processing system with the same CS-600.1 Kit (a new kit was not used). Into one bag was added about 8 ml of Media 1 (OpTmizer™ complete media containing 300 IU/mL rhIL-2 (ThermoFisher) and 2 mM 2-Deoxy-D-glucose (2-DG) (MilliporeSigma, Burlington, MA)). Into the second bag was added about 8 ml of Media 2 (OpTmizer™ complete media containing 300 IU/mL rhIL-2 (ThermoFisher)). To each was added 7.5 ml Immunocult™ anti-CD3/CD28/[…] (25 μl/ml media with cells, Stemcell Technologies). The amount of activator was determined based on the culture volume of 300 ml that was used in the culture/activation step below. The bags were incubated for 1 hour at room temperature to allow for saturation of antibody binding.
A 2 L XURI® SP Perf Cellbag bioreactor (GE Healthcare) was connected to a XURI® Cell Expansion System W25 and 300 ml Media 1 was added and allowed to equilibrate at 37° C., 5% CO2, gas flow rate of 0.1 L/min, and a rocking rate of 6 rpm at a 6° angle. […]
On Day 1, the nucleated cells in each bag were counted and the amount of a lentiviral vector (comprising a polynucleotide encoding a TCR) corresponding to a MOI of 1 functional titer was diluted in 10 ml of Media 1 or Media 2 and placed in transfer bags. […]
On Day 2, about half the volume of the culture media in each bioreactor bag was exchanged using three 50 ml bag washouts through feed-line and waste-line. Cell counts were taken daily and viable cell density (VCD), viability, dissolved oxygen, metabolites were determined as described above. Cell phenotypes were determined for all samples tested. […]
Total viable cell density, viability, glucose and lactate measurements were taken each day. Phenotyping was determined on Days 3, 5 and 7. […]
Total viable cell density, viability, glucose and lactate measurements were taken each day. Phenotyping was determined on Days 9 and 14.

The subject of assay [4] is T cells. Kind of assay: Transgene expression of cells expanded in media with 2-DG. The assay is classed as cell-based, human. The procedure: On Day 1, the nucleated cells in each bag were counted and the amount of a lentiviral vector (comprising a polynucleotide encoding a TCR) corresponding to a MOI of 1 functional titer was diluted in 10 ml of Media 1 or Media 2 and placed in transfer bags. The transfer bags were sterile welded on XURI® Cellbag feed-lines and the lentivirus was then transferred into each of the bioreactors via gravity flow. The cells were incubated at 37° C., 5% CO2, gas flow rate of 0.1 L/min, and a rocking rate of 2 rpm at a 2° angle, for 20-24 hours.
In contrast, transgene expression of T cell in non-2-DG media decreased to 44.4% at high cell density ([…]).

Assay [5] relates to T2 cells. Kind of assay: Potency assay: cytotoxicity against peptide-pulsed T2 cells expressing Luciferase. Format: cell-based. The settings on record: peptide 1 μM, E:T 1:1, 48 hours. On the procedure:
as §1

For assay [6], the system named is T cells. Briefly: CD25 expression by cells expanded in media with 2-DG. Format: cell-based, human. The source says:
Even through CD25 expression by T cells in both conditions saturated at ±80%. T cells in 2-DG media retained CD25 better at Days[…] and 9 than the cells in the non-2-DG media. This may be due to the higher transgene expression and T cell yield for T cells generated in the 2-DG media.

For `O=CC[C@@H](O)[C@H](O)[C@H](O)CO` [2-DG, 2-deoxy-D-glucose], the “CD3+ cell purity” value with T cells [1] is given as “above 98%”. Moreover, the “24 hour accumulated release of IFN-γ versus non-2-DG media” value in the assay on T2 cells [2] is “lower level of IFN-γ”. Moreover, in the assay with glycolysis (2-DG media (Media 1)), the “Glucose concentration in spent media compared to non-2-DG condition” value is “higher glucose concentration” and the “Lactate concentration in spent media compared to non-2-DG condition” value was “higher lactate concentration”. Besides, the “Effect on glucose and lactate levels after removal of 2-DG” value with glycolysis (2-DG removed from media Day 7 to 14) is reported as “reversible”. The “collected Tscm and Tcm subsets” value in the assay on T cells [3] (2-DG throughout entire process (10 days), non-2-DG media 43%) worked out at 59%. For the same molecule, the Tscm subset in the assay with T cells [3] (Day 5, non-2-DG media 14%) amounted to 26%. For the same molecule, in the assay on T cells [3] (Day 7, non-2-DG media 56%), the “combined Tcm and Tscm” value was determined as 86%. The molecule further yielded a T cells yielded in the assay on apheresed donor cells (2 mM 2-DG media, 14 days, without 2-DG 25 billion) of 35 billion T cells. Further, the “Viability compared with non-2-DG media” value with apheresed donor cells (Day 4 to Day 10) was “slightly higher viability”. Also, the Overall viability entry in the assay with apheresed donor cells (both media conditions) is reported as “above 70%”. Moreover, the “Transgene expression by T cells” value in the assay with T cells [4] (2-DG media, non-2-DG media 54%) stood at 56%. For the same molecule, the “Transgene expression at high cell density” value with T cells [4] (cell density 35 billion cells/ml, non-2-DG media 44.4% at 25 billion cells/ml) came to 50.4%. The “T2 cell lysis versus T cells from non-2-DG media” value in the assay with T2 cells [5] is “No significant difference”. The “CD25 expression in response to activation” value in the assay on T cells [6] (2-DG media, non-2-DG media 46%) was found to be 32%. The “CD25 expression at saturation” value in the assay on T cells [6] (both conditions) is reported as approximately 80%.
